pEC50, pIC50: −log10 of the molar value.
Key:
[1] = tested on: MEK1 phosphorylation in the A375 human melanoma cell line; test: cells; conditions: A-375, read-out: pMEK IC50
A375 cells = test: cells; conditions: Homo sapiens, A-375, read-out: A375 Viability EC50
Procedure: The following day, the medium was replaced with 0.5% FBS in M3 for overnight incubation. […] The cells were incubated with compound or control for 72 hours at 37° C. under 10% CO2. Following incubation, Cell Titer Blue reagent (Promega) was added to each well containing compounds or controls, and then incubated for 3 hours at 37° C. under 10% CO2. Proliferation was measured by fluorescence with excitation at 560 nm and emission at 590 nm using SoftMax Pro.

Row | pIC50 [1] | pEC50 (A375 cells) | SMILES
1 | > 6.60 | > 6.60 | COc1cc2ncnc(Oc3cccc(NC(=O)Nc4cc(C(C)(C)C)on4)c3)c2cc1OCCCN1CCOCC1 [Ex 22, 1-(5-tert-butylisoxazol-3-yl)-3-(3-(7-methoxy-6-(3-morpholinopropoxy)quinazolin-4-yloxy)phenyl)urea]
2 | > 6.60 | 6.30 to 6.60 | COc1cc2ncnc(Sc3cccc(NC(=O)Nc4cc(C(C)(C)C)on4)c3)c2cc1OCCCS(C)(=O)=O [Ex 64, 1-(5-tert-butylisoxazol-3-yl)-3-(3-(7-methoxy-6-(3-(methylsulfonyl)propoxy)quinazolin-4-ylthio)phenyl)urea]
3 | < 6.00 | – | COc1cc2nc(Cl)nc(Sc3cccc(NC(=O)Nc4cc(C(C)(C)C)on4)c3)c2cc1OC [Ex 89, 1-(5-tert-butylisoxazol-3-yl)-3-(3-(2-chloro-6,7-dimethoxyquinazolin-4-ylthio)phenyl)urea]
4 | 6.30 to 6.60 | 6.00 to 6.30 | COc1cc2ncnc(Oc3cccc(NC(=O)Nc4cc(C(C)C)on4)c3)c2cc1OC [Ex 133, 1-(3-(6,7-dimethoxyquinazolin-4-yloxy)phenyl)-3-(5-isopropylisoxazol-3-yl)urea]
5 | 6.30 to 6.60 | < 6.00 | COc1cc2ncnc(Sc3cccc(NC(=O)Nc4cc(C(C)C)on4)c3)c2cc1OC [Ex 134, 1-(3-(6,7-dimethoxyquinazolin-4-ylthio)phenyl)-3-(5-isopropylisoxazol-3-yl)urea]
6 | > 6.60 | 6.30 to 6.60 | COc1cc2ncnc(Oc3cccc(NC(=O)Nc4cc(C5CCCC5)on4)c3)c2cc1OC [Ex 135, 1-(5-cyclopentylisoxazol-3-yl)-3-(3-(6,7-dimethoxyquinazolin-4-yloxy)phenyl)urea]
7 | 6.30 to 6.60 | < 6.00 | COc1cc2ncnc(Oc3cccc(NC(=O)Nc4cc(C(F)(F)F)nn4C)c3)c2cc1OC [Ex 164, 1-[3-(6,7-dimethoxyquinazolin-4-yloxy)phenyl]-3-[1-methyl-3-(trifluoromethyl)-1H-pyrazol-5-yl]urea]
8 | 6.30 to 6.60 | 6.00 to 6.30 | COc1cc2ncnc(Oc3cccc(NC(=O)Nc4cc(C(F)(F)F)n(C)n4)c3)c2cc1OC [Ex 165, 1-[3-(6,7-dimethoxyquinazolin-4-yloxy)phenyl]-3-[1-methyl-5-(trifluoromethyl)-1H-pyrazol-3-yl]urea]

The next lines start with the compound.

Row | SMILES | pIC50 [1] | pEC50 (A375 cells)
9 | COc1cc2ncnc(Sc3cccc(NC(=O)Nc4cc(C(C)(C)C)on4)c3)c2cc1OCCN1CCS(=O)(=O)CC1 [Ex 71, 1-(5-tert-butyl-isoxazol-3-yl)-3-(3-{6-[2-(1,1-dioxo-thiomorpholin-4-yl)-ethoxy]-7-methoxy-quinazolin-4-ylsulfanyl}-phenyl)-urea] | > 6.60 | 6.30 to 6.60
10 | COc1cc2ncnc(Sc3cccc(NC(=O)Nc4cc(C(C)(C)C)on4)c3)c2cc1OCCS(C)(=O)=O [Ex 88, 1-(5-tert-butylisoxazol-3-yl)-3-(3-(7-methoxy-6-(2-(methylsulfonyl)ethoxy)quinazolin-4-ylthio)phenyl)urea] | > 6.60 | 6.00 to 6.30
11 | COc1cc2c(Oc3cccc(NC(=O)Nc4cc(C(C)(C)C)on4)c3)ncnc2cc1OC[C@H](O)CN1CCN(C)CC1 [Ex 100, (R)-1-(5-tert-butylisoxazol-3-yl)-3-(3-(7-(2-hydroxy-3-(4-methylpiperazin-1-yl)propoxy)-6-methoxyquinazolin-4-yloxy)phenyl)urea] | > 6.60 | > 6.60
12 | COc1cc2c(Oc3cccc(NC(=O)Nc4cc(C(C)(C)C)on4)c3)ncnc2cc1O[C@H]1CCN(CC(F)(F)F)C1 [Ex 104, (S)-1-(5-tert-butylisoxazol-3-yl)-3-(3-{6-methoxy-7-[1-(2,2,2-trifluoroethyl)pyrrolidin-3-yloxy]quinazolin-4-yloxy}phenyl)urea] | 6.00 to 6.30 | < 6.00
13 | COc1cc2c(Oc3cccc(NC(=O)Nc4cc(C(C)(C)C)on4)c3)ncnc2cc1OC1CCN(CC(F)F)CC1 [Ex 105, 1-(5-tert-butylisoxazol-3-yl)-3-(3-{7-[1-(2,2-difluoroethyl)piperidin-4-yloxy]-6-methoxyquinazolin-4-yloxy}phenyl)urea] | < 6.00 | < 6.00
14 | COc1cc2ncnc(Oc3cccc(NC(=O)Nc4cc(C(C)(C)C)on4)c3)c2cc1O[C@H]1CCN(C)C1 [Ex 109, (S)-1-(5-tert-butylisoxazol-3-yl)-3-(3-(7-methoxy-6-(1-methylpyrrolidin-3-yloxy)quinazolin-4-yloxy)phenyl)urea] | > 6.60 | 6.30 to 6.60
15 | COc1cc2ncnc(Oc3cccc(NC(=O)Nc4cc(C(C)C)no4)c3)c2cc1OC [Ex 122, 1-(3-(6,7-dimethoxyquinazolin-4-yloxy)phenyl)-3-(3-isopropylisoxazol-5-yl)urea] | 6.30 to 6.60 | < 6.00
16 | COc1cc2ncnc(Oc3cccc(NC(=O)Nc4cc(C5CC5)no4)c3)c2cc1OC [Ex 124, 1-(3-cyclopropylisoxazol-5-yl)-3-(3-(6,7-dimethoxyquinazolin-4-yloxy)phenyl)urea] | < 6.00 | < 6.00
17 | COc1cc2ncnc(Oc3cccc(NC(=O)Nc4cc(C5(C)CC5)on4)c3)c2cc1OC [Ex 127, 1-(3-(6,7-dimethoxyquinazolin-4-yloxy)phenyl)-3-(5-(1-methylcyclopropyl)isoxazol-3-yl)urea] | 6.30 to 6.60 | < 6.00
18 | COCC(C)(C)c1cc(NC(=O)Nc2cccc(Oc3ncnc4cc(OC)c(OC)cc34)c2)on1 [Ex 128, 1-(3-(6,7-dimethoxyquinazolin-4-yloxy)phenyl)-3-(3-(1-methoxy-2-methylpropan-2-yl)isoxazol-5-yl)urea] | 6.00 to 6.30 | < 6.00
19 | COc1cc2ncnc(Oc3cccc(NC(=O)Nc4cc(C(C)(C)F)on4)c3)c2cc1OC [Ex 136, 1-(3-(6,7-dimethoxyquinazolin-4-yloxy)phenyl)-3-(5-(2-fluoropropan-2-yl)isoxazol-3-yl)urea] | > 6.60 | 6.30 to 6.60
20 | COCCOc1cc2ncnc(Oc3cccc(NC(=O)Nc4ccc(OC)c(C(F)(F)F)c4)c3)c2cc1OC [Ex 139, 1-(4-methoxy-3-(trifluoromethyl)phenyl)-3-(3-(6-methoxy-7-(2-methoxyethoxy)quinazolin-4-yloxy)phenyl)urea] | 6.30 to 6.60 | < 6.00
21 | COc1cc2ncnc(Oc3cccc(NC(=O)Nc4cc(C(F)(F)F)ccn4)c3)c2cc1OC [Ex 141, 1-(3-(6,7-dimethoxyquinazolin-4-yloxy)phenyl)-3-(4-(trifluoromethyl)pyridin-2-yl)urea] | 6.00 to 6.30 | < 6.00
22 | COc1cc2ncnc(Sc3cccc(NC(=O)Nc4cc(C(C)(C)C)nn4-c4ccccc4)c3)c2cc1OC [Ex 154, 1-(3-tert-butyl-1-phenyl-1H-pyrazol-5-yl)-3-(3-(6,7-dimethoxyquinazolin-4-ylthio)phenyl)urea] | > 6.60 | –
23 | COc1cc2ncnc(Oc3cccc(NC(=O)Nc4cc(C(C)(CF)CF)nn4-c4ccccc4)c3)c2cc1OC [Ex 167, 1-[3-(1,3-difluoro-2-methylpropan-2-yl)-1-phenyl-1H-pyrazol-5-yl]-3-[3-(6,7-dimethoxyquinazolin-4-yloxy)phenyl]urea] | > 6.60 | 6.00 to 6.30
24 | COc1cc2ncnc(Oc3cccc(NC(=O)Nc4cc(C(F)(F)F)n(-c5ccccc5)n4)c3)c2cc1OC [Ex 169, 1-[3-(6,7-dimethoxyquinazolin-4-yloxy)phenyl]-3-[1-phenyl-5-(trifluoromethyl)-1H-pyrazol-3-yl]urea] | 6.30 to 6.60 | < 6.00

From patent US8618289B2 (Ambit Biosciences Corporation, priority 2008, dated 2013)
